Source: patent publication US20140193827A1 (TEVA PHARMACEUTICAL INDUSTRIES, LTD., priority 2013, published 2014)

System: GA-primed murine splenocytes
Assay: ANOVA-based pattern identification method
Assay type: cell-based, mouse
Description: We sought to identify probes matching specific patterns of expression across experimental conditions using a technique that referred to as the ANOVA-based Pattern Identification Method.
To carry out the analysis in a general manner, we computed the 6 p-values required to do pairwise comparisons of all 4 conditions for all probes using the ANOVA1 function in MATLAB. We then identified sets of probes matching the desired pattern. In the example above, probes were identified as being only affected by PG if their 6 pairwise comparison pvalues matched the following pattern (pGA-PG<0.05, pPG-reference standard<0.05, pPG-Medium<0.05, pGAMedium>0.05, pGA-reference standard>0.05, preference standard-Medium>0.05).

glatiramer acetate [GA]
FYB expression level (UP IN GA AND REF ONLY): 8.25
GNL3L expression level (UP IN GA AND REF ONLY): 7.689
GPC3 expression level (UP IN GA AND REF ONLY): 5.696
GPI1 expression level (UP IN GA AND REF ONLY): 11.7829
GREM2 expression level (UP IN GA AND REF ONLY): 6.036
GTF3C5 expression level (UP IN GA AND REF ONLY): 5.928
GTL7 expression level (UP IN GA AND REF ONLY): 7.434
H2-T23 expression level (UP IN GA AND REF ONLY): 10.78
H2AFZ expression level (UP IN GA AND REF ONLY): 11.93
HEATR3 expression level (UP IN GA AND REF ONLY): 5.853
HIST1H2AG expression level (UP IN GA AND REF ONLY): 10.07
HIST1H2AK expression level (UP IN GA AND REF ONLY): 12.78
HNRNPK expression level (UP IN GA AND REF ONLY): 10.05
IL1F10 expression level (UP IN GA AND REF ONLY): 6.065
INPP4B expression level (UP IN GA AND REF ONLY): 6.314
KLRA1 expression level (UP IN GA AND REF ONLY): 5.834
KRT25 expression level (UP IN GA AND REF ONLY): 5.8
LOC235279 expression level (UP IN GA AND REF ONLY): 5.818
LOC244219 expression level (UP IN GA AND REF ONLY): 5.958
LOC331243 expression level (UP IN GA AND REF ONLY): 5.641
LOC380707 expression level (UP IN GA AND REF ONLY): 10.02
LOC381093 expression level (UP IN GA AND REF ONLY): 5.885
LOC383306 expression level (UP IN GA AND REF ONLY): 5.921
LOC383433 expression level (UP IN GA AND REF ONLY): 5.667
LOC383706 expression level (UP IN GA AND REF ONLY): 8.36
LOC384585 expression level (UP IN GA AND REF ONLY): 5.764
LOC384990 expression level (UP IN GA AND REF ONLY): 5.909
LOC386161 expression level (UP IN GA AND REF ONLY): 5.652
LOC628101 expression level (UP IN GA AND REF ONLY): 6.566
LOC667005 expression level (UP IN GA AND REF ONLY): 7.02
LOC100040244 expression level (UP IN GA AND REF ONLY): 7.257
LOC100040854 expression level (UP IN GA AND REF ONLY): 5.619
LOC100041450 expression level (UP IN GA AND REF ONLY): 6.953
LOC100043391 expression level (UP IN GA AND REF ONLY): 14.29
LOC100044190 expression level (UP IN GA AND REF ONLY): 10.67
LOC100046320 expression level (UP IN GA AND REF ONLY): 7.704
LOC100047009 expression level (UP IN GA AND REF ONLY): 6.027
LOC100048816 expression level (UP IN GA AND REF ONLY): 5.928
LSG1 expression level (UP IN GA AND REF ONLY): 7.278
MAD2L1BP expression level (UP IN GA AND REF ONLY): 9.971
MIER2 expression level (UP IN GA AND REF ONLY): 5.885
MX2 expression level (UP IN GA AND REF ONLY): 8.083
MYNN expression level (UP IN GA AND REF ONLY): 5.819
NCDN expression level (UP IN GA AND REF ONLY): 5.87
NEO1 expression level (UP IN GA AND REF ONLY): 6.159
NPC2 expression level (UP IN GA AND REF ONLY): 9.575
NUDCD2 expression level (UP IN GA AND REF ONLY): 7.102
OLFR701 expression level (UP IN GA AND REF ONLY): 5.738
OS9 expression level (UP IN GA AND REF ONLY): 9.621
OTTMUSG00000005523 expression level (UP IN GA AND REF ONLY): 6.96
PARP14 expression level (UP IN GA AND REF ONLY): 11.13
PCDHGC5 expression level (UP IN GA AND REF ONLY): 6.075
PDIA2 expression level (UP IN GA AND REF ONLY): 5.846
PDLIM1 expression level (UP IN GA AND REF ONLY): 9.528
PIBF1 expression level (UP IN GA AND REF ONLY): 6.957
PIGN expression level (UP IN GA AND REF ONLY): 5.83
PJA1 expression level (UP IN GA AND REF ONLY): 6.736
PK3 expression level (UP IN GA AND REF ONLY): 6.316
PLEKHF2 expression level (UP IN GA AND REF ONLY): 8.247
PLXNC1 expression level (UP IN GA AND REF ONLY): 6.506
PPP1CB expression level (UP IN GA AND REF ONLY): 7.717
PPP2R5C expression level (UP IN GA AND REF ONLY): 10.04
PSEN2 expression level (UP IN GA AND REF ONLY): 5.995
PTPN1 expression level (UP IN GA AND REF ONLY): 9.292
PUM2 expression level (UP IN GA AND REF ONLY): 8.717
RAB6 expression level (UP IN GA AND REF ONLY): 7.499
RAB33A expression level (UP IN GA AND REF ONLY): 6.093
RBM14 expression level (UP IN GA AND REF ONLY): 6.157
RN185 expression level (UP IN GA AND REF ONLY): 9.959
RNF8 expression level (UP IN GA AND REF ONLY): 6.852
RNF19A expression level (UP IN GA AND REF ONLY): 5.962
RNGTT expression level (UP IN GA AND REF ONLY): 6.302
RPL37 expression level (UP IN GA AND REF ONLY): 5.765
SAMHD1 expression level (UP IN GA AND REF ONLY): 12.05
SCL0002368.1_75 expression level (UP IN GA AND REF ONLY): 9.053
SELP expression level (UP IN GA AND REF ONLY): 6.569
SLC30A8 expression level (UP IN GA AND REF ONLY): 5.652
SLCO3A1 expression level (UP IN GA AND REF ONLY): 6.151
SLFN9 expression level (UP IN GA AND REF ONLY): 5.598
SPNB2 expression level (UP IN GA AND REF ONLY): 5.753
STAT3 expression level (UP IN GA AND REF ONLY): 11.07
STIL expression level (UP IN GA AND REF ONLY): 5.727
TELO2 expression level (UP IN GA AND REF ONLY): 5.873
TMPO expression level (UP IN GA AND REF ONLY): 8.63
TNP2 expression level (UP IN GA AND REF ONLY): 5.959
TOP2A expression level (UP IN GA AND REF ONLY): 7.085
TOR1A expression level (UP IN GA AND REF ONLY): 7.512
TPM4 expression level (UP IN GA AND REF ONLY): 7.481
TRAPPC2 expression level (UP IN GA AND REF ONLY): 5.833
TRMT2A expression level (UP IN GA AND REF ONLY): 6.694
TSPAN14 expression level (UP IN GA AND REF ONLY): 9.848
TTLL4 expression level (UP IN GA AND REF ONLY): 5.973
UBE2Z expression level (UP IN GA AND REF ONLY): 6.169
USF1 expression level (UP IN GA AND REF ONLY): 6.915
V1RD18 expression level (UP IN GA AND REF ONLY): 5.691
VMN2R81 expression level (UP IN GA AND REF ONLY): 5.992
VMN2R89 expression level (UP IN GA AND REF ONLY): 6.242
VPS37B expression level (UP IN GA AND REF ONLY): 10.56
WAPAL expression level (UP IN GA AND REF ONLY): 6.423
WDR45L expression level (UP IN GA AND REF ONLY): 7.365
ZDHHC21 expression level (UP IN GA AND REF ONLY): 8.562
ZFP277 expression level (UP IN GA AND REF ONLY): 9.951
ZFP281 expression level (UP IN GA AND REF ONLY): 8.974
ZFP800 expression level (UP IN GA AND REF ONLY): 6.783
ZNF24 expression level (UP IN GA AND REF ONLY): 6.171
ZWILCH expression level (UP IN GA AND REF ONLY): 6.29
ZZZ3 expression level (UP IN GA AND REF ONLY): 6.181
5YNGR1 expression (UP IN generic ONLY): 5.954
1200003C05RIK expression (UP IN generic ONLY): 9.103
1200011M11RIK expression (UP IN generic ONLY): 6.322
1700021P22RIK expression (UP IN generic ONLY): 6.037
1700029G01RIK expression (UP IN generic ONLY): 6.738
1700063H04RIK expression (UP IN generic ONLY): 5.82
2210010L05RIK expression (UP IN generic ONLY): 5.598
2310046A06RIK expression (UP IN generic ONLY): 5.634
2310051M13RIK expression (UP IN generic ONLY): 5.609
2600005J22RIK expression (UP IN generic ONLY): 5.732
2610209A20RIK expression (UP IN generic ONLY): 6.008
2810046M22RIK expression (UP IN generic ONLY): 5.995
2810453I06RIK expression (UP IN generic ONLY): 8.506
2900090M10RIK expression (UP IN generic ONLY): 5.695
3110070M22RIK expression (UP IN generic ONLY): 6.16
4930430K04RIK expression (UP IN generic ONLY): 5.499
4930432K21RIK expression (UP IN generic ONLY): 6.593
4930471I01RIK expression (UP IN generic ONLY): 5.854
4930481A15RIK expression (UP IN generic ONLY): 5.879
4930543G11RIK expression (UP IN generic ONLY): 5.775
